The source of these data is US20220370556A1, “Method of Treatment” (Volution Immuno Pharmaceuticals SA, priority 2019, published 2022).

One may read the pKd as −log10 of the Kd, conventionally taken in molar units.

pKd: −log10 of the molar value.

The target in experiment [1] is T1, nomacopan (EV576, OmCI protein, Coversin), Ornithodoros moubata, mature form, amino acids 19 to 168 of SEQ ID NO: 2 (SEQ ID NO: 4) (Ornithodoros moubata, UniProt Q5YD59).
T1 sequence (Q5YD59 19-168): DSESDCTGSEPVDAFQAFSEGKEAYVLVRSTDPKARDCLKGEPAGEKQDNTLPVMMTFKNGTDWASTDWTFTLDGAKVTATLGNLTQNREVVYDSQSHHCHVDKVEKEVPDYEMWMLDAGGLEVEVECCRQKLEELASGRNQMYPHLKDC
Briefly: Fluorescence titration of LTB4 binding to nomacopan. Particulars: 100 nM nomacopan in PBS, 20° C., excitation 280 nm, emission 340 nm. The source says:
The ability of a nomacopan-type protein to bind LTB4 may be determined by standard in vitro assays known in the art, for example by means of a competitive ELISA between nomacopan and anti-LTB4 antibody competing for binding to labelled LTB4, by isothermal titration calorimetry or by fluorescence titration. […] For example, binding activity for LTB4 (Caymen Chemicals, Ann Arbor, Mich., USA) in phosphate buffered saline (PBS) can be quantified in a spectrofluorimeter e.g. a LS 50 B spectrofluorimeter (Perkin-Elmer, Norwalk, Conn., USA). This may be carried out by may be carried out as follows:
Purified 100 nM solutions of nomacopan, in 2 mL PBS were applied in a quartz cuvette (10 mm path length; Hellma, Mühlheim, Germany) equipped with a magnetic stirrer.
Temperature was adjusted to 20° C. and, after equilibrium was reached, protein Tyr/Trp fluorescence was excited at 280 nm (slit width: 15 nm). The fluorescence emission was measured at 340 nm (slit width: 16 nm) corresponding to the emission maximum. A ligand solution of 30 μM LTB4 in PBS was added step-wise, up to a maximal volume of 20 μL (1% of the whole sample volume), and after 30 s incubation steady state fluorescence was measured. […]

Experiment [2] has as its target Human BLT1 G-protein coupled receptor. The settings on record: high affinity receptor, ref. [12]; cited from earlier work.
For experiment [3], the target named is Human BLT2 G-protein coupled receptor. Particulars: ref. [13]; cited from earlier work.

With `CCCCC/C=C\C[C@@H](O)/C=C/C=C/C=C\[C@@H](O)CCCC(=O)O` [LTB4, Leukotriene B4], the figures for the negative logarithm of the Kd (pKd) in experiment [1], in experiment [2] and in experiment [3] were 9.52 to 10.00, 8.82 to 9.41 and 7.64, respectively.
